Among the data in patent US9868720B2 (Genentech, Inc., priority 2013, dated 2018) are Ki values, retold here.

For the experiment, the target named is DLK kinase (N-terminally GST-tagged DLK, catalytic domain amino acid 1-520) (Homo sapiens (Human), UniProt Q12852). As to the kind of experiment: DLK TR-FRET assay. It is filed as biochemical. Particulars: 30 μM ATP, MKK4 K131M substrate, read-out: DLK HTRF (Ki). How it is done: DLK TR-FRET assay: DLK kinase reactions (20 μL) containing 5 nM N-terminally GST-tagged DLK (catalytic domain amino acid 1-520) (Carna Bioscience), 40 nM N-terminally HIS-tagged MKK4 K131M substrate, and 30 μM ATP in kinase reaction buffer (50 mM HEPES, pH 7.5, 0.01% Triton X-100, 0.01% Bovine γ-Globulins, 2 mM DTT, 10 mM MgCl2 and 1 mM EGTA), and testing compound 1:3 serial diluted starting at 20 uM were incubated at ambient temperature for 60 minutes in 384 well OptiPlate (Perkin Elmer). To quench kinase reactions and detect phosphorylated MKK4, 15 μL of TR-FRET antibody mixture containing 2 nM anti-phosphorylated MKK4 labeled with Europium cryptate (Cisbio) and 23 nM anti-HIS labeled with D2 (Cisbio) in detection buffer (25 mM Tris pH 7.5, 100 mM NaCl, 100 mM EDTA, 0.01% Tween-20, and 200 mM KF) was added to the reaction mixture. The detection mixture was incubated for 3 hours at ambient temperature and the TR-FRET was detected with an EnVision multilabel plate reader (Perkin-Elmer) using the LANCE/DELFIA Dual Enh label from Perkin-Elmer (excitation filter: UV2 (TRF) 320 and emission filters: APC 665 and Europium 615).
Chain of DLK kinase (N-terminally GST-tagged DLK, catalytic domain amino acid 1-520) (Q12852 1-520): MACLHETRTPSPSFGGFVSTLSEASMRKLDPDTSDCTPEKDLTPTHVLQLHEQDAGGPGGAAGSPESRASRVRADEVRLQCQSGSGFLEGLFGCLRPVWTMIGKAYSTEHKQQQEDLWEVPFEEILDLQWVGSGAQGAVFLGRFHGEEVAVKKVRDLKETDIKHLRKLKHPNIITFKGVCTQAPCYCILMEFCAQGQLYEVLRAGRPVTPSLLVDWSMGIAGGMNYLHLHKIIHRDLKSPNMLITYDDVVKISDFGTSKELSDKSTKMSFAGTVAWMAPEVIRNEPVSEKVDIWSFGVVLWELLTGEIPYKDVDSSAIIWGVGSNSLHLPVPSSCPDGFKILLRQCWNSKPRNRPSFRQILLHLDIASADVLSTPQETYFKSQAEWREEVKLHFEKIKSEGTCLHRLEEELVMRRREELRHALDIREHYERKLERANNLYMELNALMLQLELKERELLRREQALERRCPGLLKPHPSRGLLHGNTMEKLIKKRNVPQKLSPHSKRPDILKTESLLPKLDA
(Time-resolved FRET reads energy transfer from a long-lived donor to a nearby acceptor.)
As a reminder, the Ki is the equilibrium dissociation constant of an inhibitor or competing ligand from its target. In the case of `CS(=O)(=O)N1CCCC(c2cc(Nc3cc(C(F)(F)F)ccn3)nc(C3CCCC3)n2)C1` (centres unmarked) [Example 385, [2-Cyclopentyl-6-(1-methanesulfonyl-piperidin-3-yl)-pyrimidin-4-yl]-(4-trifluoromethyl-pyridin-2-yl)-amine], the Ki was found to be 36.8 nM.

With `CC1CCCN1c1nc(Nc2cc(C(F)(F)F)ccn2)cc(C2CCN(C(=O)Cn3ccnc3)C2)n1` (centres unmarked) [Example 204, 2-Imidazol-1-yl-1-{3-[2-(2-methyl-pyrrolidin-1-yl)-6-(4-trifluoromethyl-pyridin-2-ylamino)-pyrimidin-4-yl]-pyrrolidin-1-yl}-ethanone], the Ki was found to be 7.69 nM.

Consider `C[C@@H]1CCCN1c1nc(Nc2cc(C(F)(F)F)ccn2)cc(C2CN(S(C)(=O)=O)C2)n1` [Example 374, [6-(1-Methanesulfonyl-azetidin-3-yl)-2-((R)-2-methyl-pyrrolidin-1-yl)-pyrimidin-4-yl]-(4-trifluoromethyl-pyridin-2-yl)-amine], for which the Ki was 30.6 nM.

With `FC(F)(F)c1ccnc(Nc2cc(C3CCOCC3)nc(N3CC4CCC(C3)O4)n2)c1` [Example 296, [2-(8-Oxa-3-aza-bicyclo-[3.2.1]oct-3-yl)-6-(tetra-hydro-pyran-4-yl)-pyrimidin-4-yl]-(4-trifluoro-methyl-pyridin-2-yl)-amine], the Ki was 174 nM.

`CC(C)Oc1nc(Nc2cc(C(F)(F)F)ccn2)cc(C2CCOCC2)n1` [Example 350, [2-Isopropoxy-6-(tetrahydro-pyran-4-yl)-pyrimidin-4-yl]-(4-trifluoromethyl-pyridin-2-yl)-amine]: the Ki was determined as 47.5 nM.

In the case of `FC(F)(F)c1ccnc(Nc2cc(C3CCOCC3)nc(N3CCCOCC3)n2)c1` [Example 295, [2-[1,4]Oxazepan-4-yl-6-(tetrahydro-pyran-4-yl)-pyrimidin-4-yl]-(4-trifluoromethyl-pyridin-2-yl)-amine], the Ki was 82.7 nM.

Take `Cc1ccnc(Nc2cc(C3CCCN(Cc4ccc5nccn5c4)C3)nc(C)n2)c1` (centres unmarked) [Example 49, [6-(1-Imidazo[1,2-a]pyridin-6-ylmethyl-piperidin-3-yl)-2-methyl-pyrimidin-4-yl]-(4-methyl-pyridin-2-yl)-amine]: the Ki came out at 310 nM.

On to `CC1CCCN1c1nc(Nc2cc(C(F)(F)F)ccn2)cc(C2CCN(C(=O)CC#N)CC2)n1` (centres unmarked) [Example 177, 3-{4-[2-(2-Methyl-pyrrolidin-1-yl)-6-(4-trifluoromethyl-pyridin-2-ylamino)-pyrimidin-4-3yl]-piperidin-1-yl}-3-oxo-propionitrile], for which the Ki worked out at 8.03 nM.

As for `CC(=O)N1CCCC(c2cc(Nc3cc(C)ccn3)nc(N3CCC3)n2)C1` (centres unmarked) [Example 87, 1-{3-[2-Azetidin-1-yl-6-(4-methyl-pyridin-2-ylamino)-pyrimidin-4-yl]-piperidin-1-yl}-ethanone], the Ki turned out to be 262 nM.

For `N#CC1(c2cc(Nc3cc(C(F)(F)F)ccn3)nc(Nc3cc(C(F)(F)F)ccn3)n2)CCOCC1` [Example 208, 4-[2,6-Bis-(4-trifluoro-methyl-pyridin-2-ylamino)-pyrimidin-4-yl]-tetrahydro-pyran-4-carbonitrile], the inhibition constant Ki was 322 nM.

`CCOc1ccnc(Nc2cc(C3CCCN(C(=O)c4ccccc4)C3)nc(C)n2)c1` (centres unmarked) [Example 21, {3-[6-(4-Ethoxy-pyridin-2-ylamino)-2-methyl-pyrimidin-4-yl]-piperidin-1-yl}-phenyl-methanone]: the inhibition constant (Ki) was found to be 60.7 nM.

For the molecule `O=C1CC(c2cc(Nc3cc(C(F)(F)F)ccn3)nc(C3CCOC3)n2)CCN1` (centres unmarked) [Example 392, 4-[2-(Tetrahydro-furan-3-yl)-6-(4-trifluoromethyl-pyridin-2-ylamino)-pyrimidin-4-yl]-piperidin-2-one], the Ki is 120 nM.

As for `FC1(F)CCN(c2nc(Nc3cc(-c4cccs4)ccn3)cc(C3CCNCC3)n2)C1` [Example 201, [2-(3,3-Difluoro-pyrrolidin-1-yl)-6-piperidin-4-yl-pyrimidin-4-yl]-(4-thiophen-2-yl-pyridin-2-yl)-amine], the Ki came to 3.2 nM.

As to `Cc1ccc(Nc2cc(C3CCCN(C(=O)c4ccccc4)C3)nc(C)n2)nc1` (centres unmarked) [Example 5], the inhibition constant (Ki) was found to be 401 nM.
